The text below walks through data of patent US20230303570A1, “KINASE INHIBITORS AND USES THEREOF” (ABM Therapeutics Corporation, priority 2020, published 2023).

The structures appear in SMILES notation.

Data set [1] addresses RET (Homo sapiens, UniProt P07949). The experiment in a line: RET kinase mobility shift assay. The data set is classed as biochemical. On the procedure:
(§1) The effect of the compounds on the activity of cKit, RET and AXL kinases were assessed by Mobility shift assay. • 1. 1× kinase base buffer and stop buffer for testing kinases were prepared • 1-1) 1× Kinase base buffer (50 mM HEPES, pH 7.5, 0.01% Triton X-100) • 1-2) Stop buffer (100 mM HEPES, pH 7.5, 0.015% Brij-35, 0.2% Coating Reagent #3, 50 mM EDTA) • 2. Compound and assay plate preparation: the compound was diluted to 50× of the final desired highest inhibitor concentration in reaction by 100% DMSO. 100 μl of this compound dilution was transferred to a well in a 96-well plate. For example, if the highest desired concentration was 5 μM, then 250 μM of compound DMSO solution was prepared in this step. For all compounds, the compound was serially diluted by transferring 10 μl to 70 μl of 100 DMSO in the next well and so forth for a total of 5 concentrations. 100 μl of 100% DMSO was added to two empty wells for no compound control and no enzyme control in the same 96-well plate. The plate was labeled as source plate. The intermediate plate was prepared by transferring 10 μl of compound from source plate to a new 96-well plate as the intermediate plate, adding 90 μl of 1× kinase buffer to each well of the intermediate plate, mixing the compounds in intermediate plate for 10 min on shaker. 5 μl of each well from the 96-well intermediate plate were transferred to a 384-well plate in duplicates. For example, A1 of the 96-well plate was transferred to A1 and A2 of the 384-well plate. A2 of the 96-well plate was transferred to A3 and A4 of the 384-well plate, and so on. • 4. Kinase reaction: The assay plate already contained 5 μl of compound in 10% DMSO. A 2.5× enzyme solution was prepared by adding kinases (cKit, RET, or AXL) and DTT in 1× kinase base buffer. 2.5× enzyme solution was transferred to the assay plate (by adding 10 μl of 2.5× enzyme solution to each well of the 384-well assay plate). The plate was incubated at room temperature for 10 min. 2.5× peptide solution was prepared by adding FAM-labeled peptide, ATP, MgCl2 in the 1× kinase base buffer. 2.5× peptide solution was added to the assay plate by adding 10 μl of 2.5× peptide solution to each well of the 384-well assay plate. The plate was incubated at 28° C. for the specified period of time. 25 μl of stop buffer was added to stop reaction. Data was collected on Caliper.

In data set [2] the target is HPK1 (MAP4K1) (Homo sapiens, UniProt Q92918). The data set can be described thus: HPK1 (MAP4K1) kinase Lantha screen assay. Format: biochemical. In short, it runs like this:
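Recombinant MAP4K1 preincubated 10 min with compound (6-point dilution, duplicates) in 50 mM HEPES pH 7.5, 10 mM MgCl2, then reacted with Fluorescein-PKC substrate and ATP for 90 min at room temperature. Antibody detection solution stopped reaction; after 60 min, TR-FRET read at ex 340 nm, em 520/495 nm.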

For data set [3], the target named is T1, PAK1 (Homo sapiens, UniProt Q13153). The experiment in a line: In vitro kinase assay, PAK1 (Caliper EZ Reader conversion). The data set is classed as biochemical. The arrangement: purchased Carna Biosciences. The method in brief: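 Human PAK1 was preincubated with compound (6 concentrations, 4-fold dilutions) for 10 min at room temperature, then reacted with substrate mix for 30 and 60 min. Substrate conversion was read by Caliper mobility shift. IC50 was fitted by variable-slope log(inhibitor)–response, normalised to FRAX597 and buffer controls.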
T1 sequence (Q13153 whole entry): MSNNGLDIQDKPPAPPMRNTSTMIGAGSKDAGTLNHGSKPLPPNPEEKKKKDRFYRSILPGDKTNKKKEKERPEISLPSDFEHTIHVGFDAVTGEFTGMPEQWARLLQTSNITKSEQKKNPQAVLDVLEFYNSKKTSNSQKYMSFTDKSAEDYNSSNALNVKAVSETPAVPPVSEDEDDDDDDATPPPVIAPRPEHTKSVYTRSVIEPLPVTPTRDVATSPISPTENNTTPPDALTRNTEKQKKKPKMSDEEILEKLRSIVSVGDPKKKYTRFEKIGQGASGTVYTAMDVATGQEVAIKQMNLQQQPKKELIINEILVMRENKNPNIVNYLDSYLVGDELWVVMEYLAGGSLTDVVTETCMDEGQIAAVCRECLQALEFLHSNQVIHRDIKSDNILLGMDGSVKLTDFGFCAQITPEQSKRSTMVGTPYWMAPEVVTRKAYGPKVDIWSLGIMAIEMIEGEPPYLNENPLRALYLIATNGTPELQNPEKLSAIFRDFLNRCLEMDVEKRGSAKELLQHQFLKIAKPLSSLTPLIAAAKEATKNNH

In data set [4] the target is c-Kit (Homo sapiens, UniProt P10721). The data set can be described thus: cKit kinase mobility shift assay. The data set is classed as biochemical. The method in brief: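 Human kinase with DTT in 50 mM HEPES pH 7.5 and 0.01% Triton X-100 was preincubated with compound for 10 min at room temperature, using a 5-point dilution in duplicate. FAM-labeled peptide, ATP and MgCl2 were then added and the reaction run at 28° C. Reactions were stopped with EDTA buffer and peptide conversion was read by Caliper mobility shift.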
c-Kit, sequence (P10721 26-976): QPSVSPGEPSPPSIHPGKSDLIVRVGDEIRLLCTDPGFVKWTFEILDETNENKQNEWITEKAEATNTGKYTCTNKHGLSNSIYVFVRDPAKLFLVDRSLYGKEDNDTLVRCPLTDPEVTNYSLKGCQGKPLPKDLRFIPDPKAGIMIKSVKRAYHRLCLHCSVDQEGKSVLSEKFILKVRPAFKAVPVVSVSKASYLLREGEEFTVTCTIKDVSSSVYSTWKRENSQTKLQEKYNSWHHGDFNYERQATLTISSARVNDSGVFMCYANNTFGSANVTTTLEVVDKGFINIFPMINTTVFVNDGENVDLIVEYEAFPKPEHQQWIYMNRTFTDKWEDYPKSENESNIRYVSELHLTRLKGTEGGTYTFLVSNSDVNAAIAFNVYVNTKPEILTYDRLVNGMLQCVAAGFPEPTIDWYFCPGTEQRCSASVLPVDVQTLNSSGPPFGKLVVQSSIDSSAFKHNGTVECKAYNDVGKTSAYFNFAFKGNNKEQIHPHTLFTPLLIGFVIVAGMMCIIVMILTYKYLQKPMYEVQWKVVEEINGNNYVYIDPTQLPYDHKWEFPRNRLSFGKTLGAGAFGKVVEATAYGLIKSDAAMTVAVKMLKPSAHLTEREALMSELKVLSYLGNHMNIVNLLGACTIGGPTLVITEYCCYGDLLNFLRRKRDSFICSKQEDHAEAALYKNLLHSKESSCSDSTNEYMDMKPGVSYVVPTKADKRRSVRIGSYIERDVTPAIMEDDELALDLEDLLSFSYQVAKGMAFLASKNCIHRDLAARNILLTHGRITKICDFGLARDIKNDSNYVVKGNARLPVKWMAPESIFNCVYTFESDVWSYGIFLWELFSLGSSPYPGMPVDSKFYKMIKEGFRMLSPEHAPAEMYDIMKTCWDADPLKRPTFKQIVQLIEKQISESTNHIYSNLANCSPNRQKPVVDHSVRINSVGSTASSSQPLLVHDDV

Data set [5] deals with P-glycoprotein (MDR1). The data set can be described thus: in vitro. The following applies: dog, MDCK-MDR1.
Data set [6] deals with T2, Axl (Homo sapiens, UniProt P30530).
T2 sequence (P30530 26-894): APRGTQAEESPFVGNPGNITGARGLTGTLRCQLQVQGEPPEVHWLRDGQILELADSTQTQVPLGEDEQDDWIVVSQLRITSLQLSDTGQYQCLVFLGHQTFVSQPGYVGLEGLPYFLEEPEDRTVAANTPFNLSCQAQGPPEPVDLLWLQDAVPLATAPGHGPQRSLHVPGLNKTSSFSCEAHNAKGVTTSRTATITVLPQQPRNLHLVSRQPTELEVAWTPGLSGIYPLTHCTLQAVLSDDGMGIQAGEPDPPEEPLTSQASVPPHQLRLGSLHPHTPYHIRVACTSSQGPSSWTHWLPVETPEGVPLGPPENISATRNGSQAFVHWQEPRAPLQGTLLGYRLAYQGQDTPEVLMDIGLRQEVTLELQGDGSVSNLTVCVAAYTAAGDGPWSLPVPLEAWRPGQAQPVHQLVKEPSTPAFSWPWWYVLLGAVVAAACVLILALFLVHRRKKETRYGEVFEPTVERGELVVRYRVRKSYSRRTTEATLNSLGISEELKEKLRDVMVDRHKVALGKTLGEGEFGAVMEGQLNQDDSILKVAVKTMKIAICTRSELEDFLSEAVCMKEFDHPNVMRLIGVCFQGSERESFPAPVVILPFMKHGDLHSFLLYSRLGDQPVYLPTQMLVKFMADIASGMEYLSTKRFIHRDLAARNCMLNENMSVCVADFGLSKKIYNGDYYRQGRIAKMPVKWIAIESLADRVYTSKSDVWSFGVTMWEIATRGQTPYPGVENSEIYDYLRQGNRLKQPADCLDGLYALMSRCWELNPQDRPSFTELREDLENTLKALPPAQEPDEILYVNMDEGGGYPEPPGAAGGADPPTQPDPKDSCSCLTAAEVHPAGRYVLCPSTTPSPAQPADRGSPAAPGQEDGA
The data set can be described thus: AXL kinase mobility shift assay. The data set is classed as biochemical. On the procedure: as §1

For data set [7], the target named is T1, PAK1. Particulars: background statement on known PAK1 inhibitors; result in words only; cited from earlier work.

RET, sequence (P07949 29-1114, species assumed): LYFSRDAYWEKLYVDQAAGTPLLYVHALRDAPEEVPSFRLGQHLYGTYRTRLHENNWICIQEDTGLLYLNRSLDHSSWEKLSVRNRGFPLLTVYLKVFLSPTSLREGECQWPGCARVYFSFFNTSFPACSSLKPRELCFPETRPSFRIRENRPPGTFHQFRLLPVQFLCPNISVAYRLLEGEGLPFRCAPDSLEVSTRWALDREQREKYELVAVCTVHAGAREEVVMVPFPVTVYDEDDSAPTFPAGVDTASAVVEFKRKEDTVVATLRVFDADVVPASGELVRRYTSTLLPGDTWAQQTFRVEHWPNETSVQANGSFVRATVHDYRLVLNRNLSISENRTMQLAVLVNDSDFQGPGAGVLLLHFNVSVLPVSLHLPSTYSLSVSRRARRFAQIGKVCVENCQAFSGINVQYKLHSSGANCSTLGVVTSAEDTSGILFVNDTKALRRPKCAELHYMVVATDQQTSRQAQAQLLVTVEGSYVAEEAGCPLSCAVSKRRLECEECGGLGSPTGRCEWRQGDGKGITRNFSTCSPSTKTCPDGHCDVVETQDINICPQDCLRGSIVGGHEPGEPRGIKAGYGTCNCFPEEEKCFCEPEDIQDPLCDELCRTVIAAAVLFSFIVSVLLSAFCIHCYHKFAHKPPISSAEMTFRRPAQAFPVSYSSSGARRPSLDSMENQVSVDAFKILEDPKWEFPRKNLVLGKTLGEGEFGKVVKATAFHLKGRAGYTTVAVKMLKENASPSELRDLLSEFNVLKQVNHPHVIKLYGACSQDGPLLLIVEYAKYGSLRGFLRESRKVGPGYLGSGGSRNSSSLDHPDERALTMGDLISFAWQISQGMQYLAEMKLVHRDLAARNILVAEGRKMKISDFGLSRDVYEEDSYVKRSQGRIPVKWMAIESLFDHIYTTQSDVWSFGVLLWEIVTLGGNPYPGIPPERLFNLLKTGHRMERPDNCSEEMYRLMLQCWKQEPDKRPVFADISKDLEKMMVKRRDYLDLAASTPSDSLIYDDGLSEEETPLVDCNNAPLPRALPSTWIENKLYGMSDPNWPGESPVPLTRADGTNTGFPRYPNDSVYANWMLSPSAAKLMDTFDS
HPK1 (MAP4K1), sequence (Q92918 whole entry, species assumed): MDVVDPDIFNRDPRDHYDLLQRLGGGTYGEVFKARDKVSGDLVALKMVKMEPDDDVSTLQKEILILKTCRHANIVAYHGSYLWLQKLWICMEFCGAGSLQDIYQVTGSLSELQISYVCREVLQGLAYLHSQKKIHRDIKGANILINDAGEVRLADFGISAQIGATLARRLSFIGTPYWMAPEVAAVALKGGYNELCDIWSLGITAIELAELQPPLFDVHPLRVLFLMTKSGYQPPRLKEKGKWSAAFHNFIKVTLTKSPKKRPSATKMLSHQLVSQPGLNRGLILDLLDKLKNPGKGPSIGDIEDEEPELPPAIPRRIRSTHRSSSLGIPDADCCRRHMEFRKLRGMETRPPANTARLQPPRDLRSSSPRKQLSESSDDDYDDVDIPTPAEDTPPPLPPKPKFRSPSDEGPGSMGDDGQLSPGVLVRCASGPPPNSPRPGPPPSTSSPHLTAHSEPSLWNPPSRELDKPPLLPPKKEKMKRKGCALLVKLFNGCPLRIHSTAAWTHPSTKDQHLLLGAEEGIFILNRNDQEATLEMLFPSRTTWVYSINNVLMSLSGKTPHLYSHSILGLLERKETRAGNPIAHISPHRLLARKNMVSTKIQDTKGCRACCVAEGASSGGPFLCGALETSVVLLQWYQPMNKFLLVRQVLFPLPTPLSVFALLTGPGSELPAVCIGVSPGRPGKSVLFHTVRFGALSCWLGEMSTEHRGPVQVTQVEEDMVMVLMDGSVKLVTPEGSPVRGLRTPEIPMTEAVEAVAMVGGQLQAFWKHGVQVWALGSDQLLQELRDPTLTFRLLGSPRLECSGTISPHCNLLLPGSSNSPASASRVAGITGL

The IC50 is the concentration that inhibits the measured activity by half. Turning to `CNc1ncc2c(n1)N1CCN=C1C(c1cc(NC(=O)c3cc(C(F)(F)F)ccn3)ccc1C)=C2` [Compound 107, N-(4-methyl-3-(2-(methylamino)-8,9-dihydroimidazo[1′,2′:1,6]pyrido[2,3-d]pyrimidin-6-yl)phenyl)-4-(trifluoromethyl)picolinamide], the half-inhibitory concentration (IC50) in data set [1] was under 0.1 µM; in data set [2], 0.1 to 10 µM; in data set [3], over 10 µM; in data set [4] it was under 0.1 µM.

As a reminder, the Papp A→B is how fast a substance crosses the layer from the apical side. The low end stands for slow passage, the high end for fast passage. A word on the Papp B→A: it is the apparent permeability from the basolateral to the apical side of a cell layer. One may read the efflux ratio as a quotient of directional permeabilities that is used to spot active efflux. In the case of `Cc1ccc(NC(=O)c2cc(C(F)(F)F)ccn2)cc1C1=Cc2cnc(NC3CCOCC3)nc2N2CCN=C12` [Compound 115, N-(4-methyl-3-(2-((tetrahydro-2H-pyran-4-yl)amino)-8,9-dihydroimidazo[1′,2′:1,6]pyrido[2,3-d]pyrimidin-6-yl)phenyl)-4-(trifluoromethyl)picolinamide hydrogen chloride], in data set [5], the Papp A→B at 120 min was 228 nm/s, the Papp B→A at 120 min was 369 nm/s and the efflux ratio at 120 min turned out to be 1.6. In data set [2], the IC50 is under 0.1 µM. For the same compound, the IC50 in data set [4] was under 0.1 µM.

Turning to `CNc1ncc2c(n1)N1CCN=C1C(c1cc(NC(=O)c3cc(C(F)(F)F)ccn3)ccc1Cl)=C2` [Compound 136, N-(4-chloro-3-(2-(methylamino)-8,9-dihydroimidazo[1′,2′:1,6]pyrido[2,3-d]pyrimidin-6-yl)phenyl)-4-(trifluoromethyl)picolinamide], the IC50 was under 0.1 µM in data set [1], 0.1 to 10 µM in data set [2] and under 0.1 µM in data set [4].

For `Cc1ccc(Nc2ncc3c(n2)N2CCN=C2C(c2cc(NC(=O)c4cc(C(F)(F)F)ccn4)ccc2C)=C3)cn1` [Compound 208, N-(4-methyl-3-(2-((6-methylpyridin-3-yl)amino)-8,9-dihydroimidazo[1′,2′:1,6]pyrido[2,3-d]pyrimidin-6-yl)phenyl)-4-(trifluoromethyl)picolinamide], the half-maximal inhibitory concentration (IC50) in data set [1] and in data set [2] was under 0.1 µM in each case.

Regarding `CNc1ncc2c(n1)N1CCN=C1C(c1ccc(NC(=O)C3(C(=O)Nc4ccc(F)cc4)CC3)cc1F)=C2` [Compound 340, N-(3-fluoro-4-(2-(methylamino)-8,9-dihydroimidazo[1′,2′:1,6]pyrido[2,3-d]pyrimidin-6-yl)phenyl)-N-(4-fluorophenyl)cyclopropane-1,1-dicarboxamide], the IC50 in data set [6] is over 10 µM; in data set [1] it was 0.1 to 10 µM; in data set [2] it was over 10 µM.

`CNc1ncc2c(n1)N1CCN=C1C(c1cc(NC(=O)C3(C(=O)Nc4ccc(F)cc4)CC3)ccc1F)=C2` [Compound 341, N-(4-fluoro-3-(2-(methylamino)-8,9-dihydroimidazo[1′,2′:1,6]pyrido[2,3-d]pyrimidin-6-yl)phenyl)-N-(4-fluorophenyl)cyclopropane-1,1-dicarboxamide]: the IC50 in data set [6] was over 10 µM; in data set [1] it was 0.1 to 10 µM; in data set [2], under 0.1 µM.

For the compound `CNc1ncc2cc(-c3ccc(-c4cccc(C)n4)cc3Cl)c(=O)n(C[C@H]3OC[C@H](N)CO3)c2n1` [Compound G-5555], the “inhibition of the PAK1 enzyme” value in data set [7] is reported as “potent PAK1 inhibitors”.
